Measurements reported in US8877801B2, “Compounds and compositions as selective estrogen receptor degraders” (Novartis AG, priority 2013, dated 2014).

Target: T1, ER (Homo sapiens, UniProt P03372)
T1 construct: transfected in MCF7 cells (containing endogenous ER); endogenous in cells; host or cells: MCF7 cells
T1 sequence (P03372 1-595): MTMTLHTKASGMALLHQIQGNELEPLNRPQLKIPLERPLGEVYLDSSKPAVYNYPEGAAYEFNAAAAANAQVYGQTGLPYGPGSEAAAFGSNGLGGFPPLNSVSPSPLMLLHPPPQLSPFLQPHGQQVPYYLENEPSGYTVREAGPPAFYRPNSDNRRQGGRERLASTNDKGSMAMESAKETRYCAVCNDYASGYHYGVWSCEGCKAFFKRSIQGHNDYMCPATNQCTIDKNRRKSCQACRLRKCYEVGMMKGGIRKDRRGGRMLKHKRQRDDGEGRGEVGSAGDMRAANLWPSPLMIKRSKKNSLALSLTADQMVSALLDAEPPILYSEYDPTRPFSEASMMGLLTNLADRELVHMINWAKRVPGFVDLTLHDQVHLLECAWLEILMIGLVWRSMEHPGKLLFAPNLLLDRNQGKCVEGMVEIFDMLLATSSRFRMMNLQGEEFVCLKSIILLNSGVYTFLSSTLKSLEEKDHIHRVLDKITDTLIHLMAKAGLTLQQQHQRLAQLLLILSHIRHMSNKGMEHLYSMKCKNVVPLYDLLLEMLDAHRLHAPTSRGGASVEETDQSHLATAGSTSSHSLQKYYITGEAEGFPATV
Experiment: ER transcription assay (MCF7 cells), ERE-luciferase reporter
Type: cell-based
Details: MCF7 cells, ER reporter gene, 0.1 nM 17β estradiol, 24 hours; read-out: MCF7 IC50 (inflection point of the inhibition of transcription in MCF7 cells)
Source text: ER Transcription Assay (MCF7 Cells)
The ER transcription assay is a reporter assay that is based on the ability of ER to induce transcription from a luciferase reporter gene containing estrogen response elements (EREs) in the promoter/enhancer region. When the reporter gene is transfected in MCF7 cells (containing endogenous ER), transcription is reflected by the level of luciferase expression.
A day before transfection, cells are split into a T75 flask at a cell density of 300,000 cells/mL (10 mL total) and allowed to attach overnight in a humidified CO2 incubator at 37° C.
Approximately 20 ug DNA is mixed in OptiMEM (Invitrogen) to a total volume of 650 μL. Following incubation, the OptiMEM-DNA mixture is added to the OptiMEM-Lipofectin mix and incubated for 15 minutes at 37° C. The DNA-Lipofectin mixture is then added directly to the T75 flask and the flask is returned to the incubator.
After overnight incubation, compound is added to individual wells of a 96-well plate in a 10 μL volume of media at 10× concentration along with 17β estradiol whose final concentration is 0.1 nM. Normally, DMSO (used as a vehicle) is included to achieve a final concentration of 0.1% when added to the cells. Transfected cells are trypsinized, resuspended in DMEM/F12/10% charcoal-stripped serum and added to the 96-well plate at 25,000 cells/well in 90 μL of media. The plate is then returned to the incubator for 24 hours.
After incubation with compounds for 24 hours, Firefly and Renilla luciferase activities are measured to determine ER transcriptional activity. Media is removed from 96-well plates by decanting and blotting on paper towels.
One second total read time after a one second delay.
One second total read time after one second delay. If Firefly luciferase signal is high, Renilla assay must be done an hour after the Firefly assay due to incomplete squelching of Firefly signal.
The data describing the antagonist and degradation properties for the examples is compiled in table 10. The column titled MCF7 IC50 reports the inflection point of the inhibition of transcription in MCF7 cells as described above. Percentage ERα remaining reports the remaining ERα protein measured at 10 μM concentration of the ligand as described above. The column ERα IC50 reports the inflection point of the degradation in response to the ligand concentration.

Compound	IC50
O=C(O)/C=C/c1ccc(Oc2c(-c3ccc(OC(F)(F)F)cc3)sc3cc(O)ccc23)cc1 [Example 59, (E)-3-(4-((6-hydroxy-2-(4-(trifluoromethoxy)-phenyl)benzo[b]thiophen-3-yl)oxy)phenyl)-acrylic acid]	1250 nM
O=C(O)/C=C/c1ccc(Oc2c(-c3ccc(C(F)F)cc3)sc3cc(O)ccc23)cc1 [Example 27, (E)-3-(4-((2-(4-(difluoromethyl)phenyl)-6-hydroxybenzo[b]thiophen-3-yl)oxy)phenyl)acrylic acid]	7970 nM
CC(C)(C)c1ccc(-c2sc3cc(O)ccc3c2Oc2ccc(/C=C/C(=O)O)cc2)cc1 [Example 22, (E)-3-(4-((2-(4-(tert-butyl)phenyl)-6-hydroxybenzo[b]-thiophen-3-yl)oxy)phenyl)-acrylic acid]	853 nM
O=C(O)/C=C/c1ccc(Oc2c(-c3cccc(F)c3)sc3cc(O)ccc23)cc1 [Example 7, (E)-3-(4-((2-(3-fluorophenyl)-6-hydroxybenzo[b]-thiophen-3-yl)oxy)phenyl)-acrylic acid]	713 nM
NC(=O)/C=C/c1ccc(Oc2c(-c3ccc(O)cc3)sc3cc(O)ccc23)cc1 [Example 64, (E)-3-(4-((6-hydroxy-2-(4-hydroxyphenyl)-benzo[b]thiophen-3-yl)oxy)phenyl)acrylamide]	40 nM
Cc1cc(-c2sc3cc(O)ccc3c2Oc2ccc(/C=C/C(=O)O)cc2)ccc1O [Example 61, (E)-3-(4-((6-hydroxy-2-(4-hydroxy-3-methylphenyl)benzo[b]-thiophen-3-yl)oxy)phenyl)acrylic acid]	327 nM
Cc1cc(Oc2c(-c3ccc(O)cc3)sc3cc(O)ccc23)ccc1/C=C/C(=O)O [Example 56, (E)-3-(4-((6-hydroxy-2-(4-hydroxyphenyl)-benzo[b]thiophen-3-yl)oxy)-2-methylphenyl)-acrylic acid]	1270 nM
C[C@H](O)c1ccccc1-c1sc2cc(O)ccc2c1Oc1ccc(/C=C/C(=O)O)cc1 [Example 25, (S,E)-3-(4-((6-hydroxy-2-(2-(1-hydroxyethyl)phenyl)-benzo[b]thiophen-3-yl)oxy)phenyl)acrylic acid]	179 nM
CCCc1nnc(/C=C/c2ccc(Oc3c(-c4ccc(F)cc4C)sc4cc(O)ccc34)cc2)o1 [Example 47, (E)-2-(4-fluoro-2-methylphenyl)-3-(4-(2-(5-propyl-1,3,4-oxadiazol-2-yl)vinyl)phenoxy)benzo [b]thiophen-6-ol]	111 nM
O=C(/C=C/c1ccc(Oc2c(-c3ccc(O)cc3)sc3cc(O)ccc23)cc1)NCCO [Example 65, (E)-3-(4-((6-hydroxy-2-(4-hydroxyphenyl)benzo[b]-thiophen-3-yl)oxy)phenyl)-N-(2-hydroxyethyl)acrylamide]	55 nM
Cc1nnc(/C=C/c2ccc(Oc3c(-c4ccc(F)cc4C)sc4cc(O)ccc34)cc2)[nH]1 [Example 49, (E)-2-(4-fluoro-2-methylphenyl)-3-(4-(2-(5-methyl-4H-1,2,4-triazol-3-yl)vinyl)phenoxy)benzo[b]thiophen-6-ol]	41 nM
CCCn1nnnc1/C=C/c1ccc(Oc2c(-c3ccc(F)cc3C)sc3cc(O)ccc23)cc1 [Example 53, (E)-2-(4-fluoro-2-methylphenyl)-3-(4-(2-(1-propyl-1H-tetrazol-5-yl)vinyl)phenoxy) benzo[b]thiophen-6-ol]	320 nM
Cn1nnc(/C=C/c2ccc(Oc3c(-c4ccc(O)cc4)sc4cc(O)ccc34)cc2)n1 [Example 55, (E)-2-(4-hydroxyphenyl)-3-(4-(2-(2-methyl-2H-tetrazol-5-yl)vinyl)-phenoxy)benzo[b]-thiophen-6-ol]	3 nM
Cc1cc(F)ccc1-c1sc2cc(O)ccc2c1Oc1ccc(/C=C/C(=O)NO)cc1 [Example 32, (E)-3-(4-((2-(4-fluoro-2-methylphenyl)-6-hydroxybenzo[b]thiophen-3-yl)oxy)phenyl)-N-hydroxyacrylamide]	15 nM
O=c1nc(/C=C/c2ccc(Oc3c(-c4ccc(O)cc4)sc4cc(O)ccc34)cc2)cc(C(F)(F)F)[nH]1 [Example 50, (E)-4-(4-((6-hydroxy-2-(4-hydroxyphenyl)-benzo[b]thiophen-3-yl)oxy)styryl)-6-(trifluoromethyl)-pyrimidin-2(1H)-one]	154 nM
CC(C)(C)c1ccccc1-c1sc2cc(O)ccc2c1Oc1ccc(/C=C/C(=O)O)cc1 [Example 20, (E)-3-(4-((2-(2-(tert-butyl)phenyl)-6-hydroxybenzo[b]-thiophen-3-yl)oxy)phenyl)-acrylic acid]	36 nM
O=C(/C=C/c1ccc(Oc2c(-c3ccc(F)cc3)sc3cc(O)ccc23)cc1)NCCC(F)(F)F [Example 33, (E)-3-(4-((2-(4-fluorophenyl)-6-hydroxybenzo[b]-thiophen-3-yl)oxy)phenyl)-N-(3,3,3-trifluoropropyl)-acrylamide]	73 nM
COc1ccc(-c2sc3cc(O)ccc3c2Oc2ccc(/C=C/C(=O)O)cc2)cc1 [Example 26, (E)-3-(4-((6-hydroxy-2-(4-methoxyphenyl)benzo[b]thiophen-3-yl)oxy)phenyl)acrylic acid]	647 nM
Cc1cc(C)cc(-c2sc3cc(O)ccc3c2Oc2ccc(/C=C/C(=O)O)cc2)c1 [Example 23, (E)-3-(4-((2-(3,5-dimethylphenyl)-6-hydroxybenzo[b] - thiophen-3-yl)oxy)phenyl)-acrylic acid]	748 nM
CCc1ccccc1-c1sc2cc(O)ccc2c1Oc1ccc(/C=C/C(=O)O)cc1 [Example 18, (E)-3-(4-((2-(2-ethylphenyl)-6-hydroxybenzo[b]-thiophen-3-yl)oxy)phenyl)-acrylic acid]	36 nM
O=C(O)/C=C/c1ccc(Oc2c(-c3ccc(O)cc3)sc3c(F)c(O)ccc23)cc1 [Example 39, (E)-3-(4-((7-fluoro-6-hydroxy-2-(4-hydroxyphenyl)benzo[b]-thiophen-3-yl)oxy)phenyl)acrylic acid]	653 nM
CNC(=O)/C=C/c1ccc(Oc2c(-c3ccc(C(F)(F)F)cc3)sc3cc(O)ccc23)cc1 [Example 63, (E)-3-(4-((6-hydroxy-2-(4-(trifluoromethyl)-phenyl)benzo[b]thiophen-3-yl)oxy)phenyl)-N-methylacrylamide]	185 nM
O=C(O)/C=C/c1ccc(Oc2c(-c3ccc(C(F)(F)F)cc3)sc3cc(O)ccc23)cc1 [Example 3, (E)-3-(4-((6-hydroxy-2-(4-(trifluoromethyl)phenyl)benzo[b]thiophen-3-yl)oxy)phenyl)acrylic acid]	941 nM
C/C(=C\C(=O)O)c1ccc(Oc2c(-c3ccc(O)cc3)sc3cc(O)ccc23)cc1 [Example 62, (E)-3-(4-((6-hydroxy-2-(4-hydroxyphenyl)-benzo[b]thiophen-3-yl)oxy)phenyl)but-2-enoic acid]	316 nM
CNC(=O)/C=C/c1ccc(Oc2c(-c3ccc(O)cc3)sc3cc(O)ccc23)cc1 [Example 66, (E)-3-(4-((6-hydroxy-2-(4-hydroxyphenyl)benzo-[b]thiophen-3-yl)oxy)phenyl)-N-methylacrylamide]	53 nM
CN(C)Cc1ccccc1-c1sc2cc(O)ccc2c1Oc1ccc(/C=C/C(=O)O)cc1 [Example 77, (E)-3-(4-((2-(2-((dimethylamino)methyl)phenyl)-6-hydroxybenzo[b]thiophen-3-yl)oxy)phenyl)acrylic acid]	40 nM
